# Target: T1, recombinant human pancreatic GLK (Homo sapiens, UniProt P35557)
# T1 sequence (P35557 1-465): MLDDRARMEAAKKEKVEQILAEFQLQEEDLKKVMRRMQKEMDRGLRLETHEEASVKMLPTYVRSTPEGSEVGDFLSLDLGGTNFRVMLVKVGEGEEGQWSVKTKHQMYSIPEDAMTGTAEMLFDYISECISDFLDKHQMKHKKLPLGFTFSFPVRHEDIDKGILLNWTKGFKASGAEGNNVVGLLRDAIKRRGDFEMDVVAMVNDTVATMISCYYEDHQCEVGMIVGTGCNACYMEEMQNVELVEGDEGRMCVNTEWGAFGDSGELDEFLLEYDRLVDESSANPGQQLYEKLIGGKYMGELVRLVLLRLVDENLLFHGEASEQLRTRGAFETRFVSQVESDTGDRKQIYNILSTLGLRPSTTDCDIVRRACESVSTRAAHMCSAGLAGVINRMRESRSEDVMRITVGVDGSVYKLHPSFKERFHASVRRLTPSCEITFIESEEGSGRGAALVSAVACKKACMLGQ
# Assay: biochemical
smiles,measurement,value
"C[C@@H](COC(F)F)Oc1cc(Oc2ccc(C(=O)N3CCC3)cc2Cl)cc(C(=O)Nc2ccn(C)n2)c1 [Example 1, 3-{[4-(Azetidin-1-ylcarbonyl)-2-chlorophenyl]oxy}-5-({(1S)-2-[(difluoromethyl)oxy]-1-methylethyvl}oxy)-N-(1-methyl-1H-pyrazol-3-yl)benzamide]",EC50,40 nM
